Earlier results in patent US20080119448A1, “Methods of treating an ocular allergy with low dose dexamethasone” (priority 2006, published 2008).

Conditions: dexamethasone at 0.1%

SMILES: C[C@@H]1C[C@H]2[C@@H]3CCC4=CC(=O)C=C[C@]4(C)[C@@]3(F)[C@@H](O)C[C@]2(C)[C@@]1(O)C(=O)CO [dexamethasone]
- effect on intraocular pressure: increase in intraocular pressure
